Results on three compounds are retold here after paper doi:10.1101/2023.06.16.545261v2 (biorxiv, 2023).

The target of assay [1] is T1, SIRT7 (recombinant human SIRT7, non-tagged) (Homo sapiens, UniProt Q9NRC8).
T1 sequence (Q9NRC8 1-400): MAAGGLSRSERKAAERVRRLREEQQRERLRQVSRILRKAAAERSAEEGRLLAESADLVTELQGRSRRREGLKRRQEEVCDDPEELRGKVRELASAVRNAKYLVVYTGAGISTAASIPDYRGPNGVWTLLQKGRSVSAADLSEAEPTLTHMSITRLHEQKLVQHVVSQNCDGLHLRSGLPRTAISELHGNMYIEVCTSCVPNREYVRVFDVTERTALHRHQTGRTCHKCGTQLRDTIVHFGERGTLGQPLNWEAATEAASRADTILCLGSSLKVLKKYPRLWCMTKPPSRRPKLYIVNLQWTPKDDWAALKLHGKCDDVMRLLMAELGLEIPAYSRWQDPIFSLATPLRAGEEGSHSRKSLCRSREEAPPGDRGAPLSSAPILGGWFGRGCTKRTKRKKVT
The assay is described as follows: fluorogenic deacylase assay. In kind it is biochemical. Conditions: read-out: % inhibition at 100 μM.

The target of assay [2] is T1, SIRT7 (recombinant human SIRT7, non-tagged). The assay is described as follows: fluorogenic deacylase assay. In kind it is biochemical.

Each structure is given as a SMILES string.

As for `CCCCCCCCCCCCNC(=S)NCCCC[C@H](NC(=O)OCc1ccccc1)C(=O)N[C@@H](C)C(=O)N[C@@H](CCCNC(=N)N)C(N)=O` [compound 3], in assay [1], the inhibition (usually the percentage by which the read-out fell short of the control) at 100 µM turned out to be 26%.
Regarding `CCCCCCCCCCCCNC(=O)CCCCC[C@H](NC(=O)OCc1ccccc1)C(=O)N[C@H](C(=O)N[C@@H](CCC(=O)O)C(N)=O)C(C)C` [compound 33, inverse amide 33], in assay [2], the IC50 (commonly the point on the concentration scale where inhibition reaches its midpoint) was determined as 44 µM.
The same measure, in the same setting: the result for `CCCCCCCCCCCCNC(=S)CCCCC[C@H](NC(=O)OCc1ccccc1)C(=O)N[C@H](C(=O)N[C@@H](CCC(=O)O)C(N)=O)C(C)C` [compound 34, inverse thioamide 34] reads 34 µM.
